Columns and labels:
Format in all cases: functional
[1] = test system: BT-549; assay: In vitro growth inhibition against breast cancer BT 549 cell line was reported.; settings: Homo sapiens
[2] = test system: Hs-578T; assay: In vitro growth inhibition against breast cancer HS 578T cell line was reported.; settings: Homo sapiens
[3] = test system: NCI/ADR-RES; assay: In vitro total growth inhibition against breast cancer NCI/ADR-RES cell lines was reported.; settings: Homo sapiens, read-out: Log TGI (converted)
[4] = test system: HCC 2998; assay: In vitro total growth inhibition against colon cancer HCC2998 cell lines was reported.; settings: Homo sapiens, read-out: Log TGI (converted)
[5] = test system: HCT-116; assay: Log of molar concentration leading to 50% cell death against colon cancer HCT116 cell line was reported; settings: Homo sapiens, read-out: Log LC50 (the source's name) (converted)
[6] = test system: HCT-116; assay: In vitro total growth inhibition against colon cancer HCT116 cell lines was reported.; settings: Homo sapiens, read-out: Log TGI (converted)
[7] = test system: SF-539; assay: In vitro growth inhibition against CNS cancer SF-539 cell line was reported.; settings: Homo sapiens
[8] = test system: SNB-19; assay: Log of molar concentration leading to 50% cell death against CNS cancer SNB-19 cell line was reported; settings: Homo sapiens, read-out: Log LC50 (the source's name) (converted)
[9] = test system: SNB-19; assay: In vitro total growth inhibition against CNS cancer SNB-19 cell lines was reported.; settings: Homo sapiens, read-out: Log TGI (converted)
[10] = test system: SNB-75; assay: In vitro total growth inhibition against CNS cancer SNB-75 cell lines was reported.; settings: Homo sapiens, read-out: Log TGI (converted)
[11] = test system: SF-268; assay: In vitro total growth inhibition against CNS cancer SF-268 cell lines was reported.; settings: Homo sapiens, read-out: Log TGI (converted)
[12] = test system: K562; assay: In vitro growth inhibition against leukemia K-562 cell line was reported.; settings: Homo sapiens
[13] = test system: K562; assay: In vitro total growth inhibition against leukemia K-562 cell lines was reported.; settings: Homo sapiens, read-out: Log TGI (converted)
[14] = test system: CCRF-CEM; assay: In vitro total growth inhibition against leukemia CCRF cell lines was reported.; settings: Homo sapiens, read-out: Log TGI (converted)
[15] = test system: HL-60; assay: In vitro growth inhibition against leukemia HL-60(TB) cell line was reported.; settings: Homo sapiens
[16] = test system: MOLT-4; assay: In vitro total growth inhibition against leukemia MOLT-4 cell lines was reported.; settings: Homo sapiens, read-out: Log TGI (converted)
[17] = test system: EKVX; assay: Log of molar concentration leading to 50% cell death against non-small-cell lung cancer EKVX cell line was reported; settings: Homo sapiens, read-out: Log LC50 (the source's name) (converted)
[18] = test system: HOP-62; assay: In vitro total growth inhibition against non-small-cell lung cancer HOP-62 cell lines was reported.; settings: Homo sapiens, read-out: Log TGI (converted)
[19] = test system: HOP-92; assay: Log of molar concentration leading to 50% cell death against non-small-cell lung cancer HOP-92 cell line was reported; settings: Homo sapiens, read-out: Log LC50 (the source's name) (converted)
[20] = test system: NCI-H46; assay: Log of molar concentration leading to 50% cell death against non-small-cell lung cancer […] cell line was reported; settings: Homo sapiens, read-out: Log LC50 (the source's name) (converted)
[21] = test system: NCI-H226; assay: Log of molar concentration leading to 50% cell death against non-small-cell lung cancer NCI-H226 cell line was reported; settings: Homo sapiens, read-out: Log LC50 (the source's name) (converted)
[22] = test system: NCI-H23; assay: Log of molar concentration leading to 50% cell death against non-small-cell lung cancer NCI-H23 cell line was reported; settings: Homo sapiens, read-out: Log LC50 (the source's name) (converted)
[23] = test system: OVCAR-4; assay: In vitro total growth inhibition against ovarian cancer OVCAR-4 cell lines was reported.; settings: Homo sapiens, read-out: Log TGI (converted)
[24] = test system: OVCAR-5; assay: In vitro growth inhibition against ovarian cancer OVCAR-5 cell line was reported.; settings: Homo sapiens
[25] = test system: DU-145; assay: In vitro total growth inhibition against prostate cancer […] cell lines was reported.; settings: Homo sapiens, read-out: Log TGI (converted)
[26] = test system: 786-0; assay: In vitro growth inhibition against renal cancer […] cell line was reported.; settings: Homo sapiens
[27] = test system: SN12C; assay: In vitro growth inhibition against renal cancer SN12C cell line was reported.; settings: Homo sapiens
[28] = test system: SN12C; assay: In vitro total growth inhibition against renal cancer SN12C cell lines was reported.; settings: Homo sapiens, read-out: Log TGI (converted)
[29] = test system: MOLT-4; assay: Log of molar concentration leading to 50% cell death against leukemia MOLT-4 cell line was reported; settings: Homo sapiens, read-out: Log LC50 (the source's name) (converted)
[30] = test system: HCT-15; assay: Log of molar concentration leading to 50% cell death against colon cancer HCT-15 cell line was reported; settings: Homo sapiens, read-out: Log LC50 (the source's name) (converted)
[31] = test system: HT-29; assay: Log of molar concentration leading to 50% cell death against colon cancer HT-29 cell line was reported; settings: Homo sapiens, read-out: Log LC50 (the source's name) (converted)
[32] = test system: BT-549; assay: Log of molar concentration leading to 50% cell death against breast cancer BT 549 cell line was reported; settings: Homo sapiens, read-out: Log LC50 (the source's name) (converted)
[33] = test system: MDA-N; assay: Log of molar concentration leading to 50% cell death against breast cancer MDA-Ncell line was reported; settings: Homo sapiens, read-out: Log LC50 (the source's name) (converted)
[34] = test system: NCI/ADR-RES; assay: Log of molar concentration leading to 50% cell death against breast cancer NCI/ADR-RES cell line was reported; settings: Homo sapiens, read-out: Log LC50 (the source's name) (converted)
[35] = test system: T47D; assay: Log of molar concentration leading to 50% cell death against breast cancer […] cell line was reported; settings: Homo sapiens, read-out: Log LC50 (the source's name) (converted)
[36] = test system: SK-MEL-2; assay: In vitro total growth inhibition against melanoma SK-MEL-2 cell lines was reported.; settings: Homo sapiens, read-out: Log TGI (converted)
[37] = test system: SK-MEL-5; assay: Log of molar concentration leading to 50% cell death against melanoma SK-MEL-5 cell line was reported; settings: Homo sapiens, read-out: Log LC50 (the source's name) (converted)
[38] = test system: HOP-92; assay: In vitro growth inhibition against non-small-cell lung cancer HOP-92 cell line was reported.; settings: Homo sapiens
[39] = test system: A498; assay: Log of molar concentration leading to 50% cell death against renal cancer A498 cell line was reported; settings: Homo sapiens, read-out: Log LC50 (the source's name) (converted)
[40] = test system: CAKI-1; assay: Log of molar concentration leading to 50% cell death against renal cancer CAKI-1 cell line was reported; settings: Homo sapiens, read-out: Log LC50 (the source's name) (converted)
[41] = test system: SN12C; assay: Log of molar concentration leading to 50% cell death against renal cancer SN12C cell line was reported; settings: Homo sapiens, read-out: Log LC50 (the source's name) (converted)
[42] = test system: UO-31; assay: Log of molar concentration leading to 50% cell death against renal cancer UO-31 cell line was reported; settings: Homo sapiens, read-out: Log LC50 (the source's name) (converted)
[43] = test system: UACC-62; assay: Log of molar concentration leading to 50% cell death against melanoma UACC-62 cell line was reported; settings: Homo sapiens, read-out: Log LC50 (the source's name) (converted)
[44] = test system: IGROV-1; assay: In vitro growth inhibition against ovarian cancer IGROV1 cell line was reported.; settings: Homo sapiens
[45] = test system: PC-3; assay: In vitro growth inhibition against prostate cancer PC-3 cell line was reported.; settings: Homo sapiens

`O=C(Nc1cccc2nsnc12)c1cc2c(cc1Cl)Sc1nccn1S2(=O)=O` was tested, and the GI50 [1] was 12.3 µM, the GI50 [2] was 4.17 µM and the TGI [3] was 38.9 µM. The TGI [4] was 11.7 µM, the CC50 [5] was 12.9 µM and the TGI [6] was 5.37 µM. It also gave a GI50 [7] of 2.24 µM, a CC50 [8] of 50.1 µM and a TGI [9] of 24.5 µM. For the same compound, the TGI [10] was 26.9 µM, the TGI [11] was 16.2 µM and the GI50 [12] was 4.07 µM. For the same compound, the TGI [13] was 20 µM, the TGI [14] was 13.5 µM and the GI50 [15] was 1.86 µM. The TGI [16] was 9.33 µM, the CC50 [17] was 9.77 µM and the TGI [18] was 3.8 µM. For the same compound, the CC50 [19] was 95.5 µM, the CC50 [20] was 8.91 µM and the CC50 [21] was 58.9 µM. For the same compound, the CC50 [22] was 55 µM, the TGI [23] was 10.2 µM and the GI50 [24] was 29.5 µM. It also gave a TGI [25] of 3.24 µM, a GI50 [26] of 16.6 µM and a GI50 [27] of 15.1 µM. It also gave a TGI [28] of 28.8 µM, a CC50 [29] of 83.2 µM and a CC50 [30] of 72.4 µM. The CC50 [31] was 28.8 µM, the CC50 [32] was 85.1 µM and the CC50 [33] was 56.2 µM. It also gave a CC50 [34] of 83.2 µM, a CC50 [35] of 7.76 µM and a TGI [36] of 25.7 µM. It also gave a CC50 [37] of 72.4 µM, a GI50 [38] of 5.89 µM and a CC50 [39] of 63.1 µM. The CC50 [40] was 51.3 µM, the CC50 [41] was 56.2 µM and the CC50 [42] was 50.1 µM. It also gave a CC50 [43] of 41.7 µM, a GI50 [44] of 5.5 µM and a GI50 [45] of 1.91 µM.

Source: ChEMBL document CHEMBL1135808, “A new type of mixed anhydride and its applications to the synthesis of 7-substituted 8-chloro-5,5-dioxoimidazo[1,2-b][1,4,2]benzodithiazines with in vitro antitumor activity” (2002)
